Measurements published in US5618685A, “Activation of herpes simplex virus protease by kosmotropes” (priority 1995, dated 1997).
Where a name gives a salt, the structure may show the parent alone. Read-outs that look alike come from different tables or passages of the source.

Assays:
[1] = biological target: T1, HSV-1 protease (Human herpesvirus 1, UniProt P10210); assay: biochemical
Procedure: For experiments examining anion effects, buffer solutions were prepared with the sodium salt of the anion and the pH was adjusted to 7.5 with concentrated HCl where necessary (i.e., citrate, glutamate, malate). An exception was phosphate, where NaH2 PO4 was prepared in the buffer and the pH adjusted upward with NaOH.
Enzyme activity was measured with the peptide substrates […]-amide (SEQ.ID.NO.:2) and […]-amide (SEQ.ID.NO.:1), using HPLC for the separation of products from substrates as described in Darke et al., 1994, supra. The C-terminal cleavage products of enzymatic hydrolysis are SEKFKMW-amide (SEQ.ID.NO.:3) and […]-amide (SEQ.ID.NO.:4) respectively. Quantitation of the C-terminal cleavage product, containing tryptophan, in the HPLC effluent was with a Hewlett-Packard model 1046A fluorescence detector (excitation at 280 nm, emission at 350 nm). […] Reactions were performed at 37° C. in a pH 7.5 buffer containing 52 mM 4-morpholinoethanesulfonic acid (MES), 52 mM 3-(N-tris(hydroxymethyl)methylamino)-2-hyroxy-propanesulfonic acid (TAPSO) and 100 mM diethanolamine, 1 mM EDTA, 1 mM dithiothreitol, 0.1% bovine serum albumin, and the various additives listed in the Tables. Reactions were initiated by the addition of a stock HSV-1 protease solution (0.625 mg/ml) in the above buffer with no additives to a final concentration of 0.025 mg/ml (0.94 μM) and quenched with the addition of 5% H3 PO4. Activity assays comparing various anion and cosolvents effects were conducted with a substrate concentration of 53 μM. Activity in Tables 1 and 2 is expressed as relative to the case where no additive was present in the reaction mixture.

[2] = biological target: T1, HSV-1 protease; assay: Susceptibility of HSV-1 protease to trypsin proteolysis (SDS-PAGE); format: biochemical, Herpes Simplex Virus type 1; set-up: Autoprocessing of the precursor to the mature 246 amino acid form of the enzyme; made in house; host or cells: E. coli; details: trypsin 0.1 mg/ml, 37° C., 60 min; 0.8M citrate
Procedure: HSV-1 protease was incubated for 60 minutes at 37° C. with or without trypsin, either with or without 0.8M sodium citrate present, as described in Example 3. Samples were analyzed with SDS-PAGE (16% gels) and stained with Coomassie brilliant blue. Lanes 1 and 2, no trypsin added; lanes 3 and 4, trypsin added at 0.1 mg/ml. Lanes 1 and 3, no citrate added; lanes 2 and 4, sodium citrate present at 0.8M during incubation. The arrow on the right indicates the position of 27 kDa, undigested HSV-1 protease. Molecular weight markers are in the leftmost lane, with the corresponding molecular weights marked in kDa.
In accordance with this invention, the sensitivity of native HSV-1 protease to trypsin was examined as a function of kosmotrope concentration. Following treatment of the enzyme with trypsin for 60 minutes, SDS-PAGE was performed to qualitatively examine the extent of trypsin digestion of the HSV-1 protease.
Trypsin treatment of the HSV-1 protease (0.15 mg/ml) was performed with 0.1 mg/ml trypsin at 37° C. for 60 min. Trypsin activity s measurements with the fluorogenic substrate BOC-Val-Pro-Arg-7-amino-4-methylcoumarin were performed at 37° C. After trypsin treatment, samples were boiled with SDS gel sample buffer and small volumes of sodium citrate were added to some samples to equalize the extent of band spreading on the gel. […]

[3] = pH 7.5, read-out: Relative activity of HSV-1 protease
[4] = anion (Na+ salt) 0.2M, 37° C., pH 7.5, substrate 53 μM, relative to no additive, 200000 µM
[5] = anion (Na+ salt) 0.8M, 37° C., pH 7.5, substrate 53 μM, relative to no additive, 800000 µM
[6] = anion (Na+ salt) at ionic strength = 0.8, 37° C., pH 7.5, substrate 53 μM, relative to no additive

T1 sequence (P10210 1-247): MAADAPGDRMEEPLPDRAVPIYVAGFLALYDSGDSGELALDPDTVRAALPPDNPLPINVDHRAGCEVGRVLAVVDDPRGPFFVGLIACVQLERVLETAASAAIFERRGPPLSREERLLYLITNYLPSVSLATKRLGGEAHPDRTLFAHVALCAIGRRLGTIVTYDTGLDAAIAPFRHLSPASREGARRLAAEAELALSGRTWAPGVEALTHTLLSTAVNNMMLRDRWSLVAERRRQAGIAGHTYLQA

OCCO [Ethylene glycol]
activity at 2 % [1, 3]: 63%
activity at 5 % [1, 3]: 67%
activity at 10 % [1, 3]: 45%

F [F^-]
effect of anion/salt on HSV-1 protease activity (in words) [1]: some activation
Relative activity of HSV-1 protease [1, 4]: 6.15

O=C(O)CCC(=O)O [Succinate]
Relative activity of HSV-1 protease ([1]; pH 7.5): 6.03
activity at 200000 µM [1, 3]: 397%

I [I^-, iodide]
effect of anion/salt on HSV-1 protease activity (in words) [1]: inhibition
Relative activity of HSV-1 protease [1, 4]: 0.07
Relative activity of HSV-1 protease [1, 5]: 0.00
effect of anion/salt on HSV-1 protease activity (in words) ([1]; listed as iodide): inhibitory

CN(C)C=O [Dimethyl formamide]
effect of co-solvent on HSV-1 protease activity (in words) [1]: strongly inactivating

C[S+](C)[O-] [Dimethyl sulfoxide]
inhibition at 2 % ([1]; read-out: reduction of HSV protease activity, 2% DMSO with 0.8M sodium citrate present): 8%
inhibition at 2 % ([1]; read-out: reduction of HSV protease activity, 2% DMSO, no kosmotropic anion): 37%

O=C(O)C[C@@H](O)C(=O)O [D-malate]
activity at 200000 µM [1, 3]: 409%

O=C(O)C[C@H](O)C(=O)O [L-malate]
activity at 200000 µM [1, 3]: 404%

CC(=O)O [CH3 COO^-]
activity at 200000 µM [1, 3]: 171%
activity at 800000 µM [1, 3]: 703%

OC[C@@H](O)[C@@H](O)[C@H](O)[C@@H](O)CO [Sorbitol]
effect of co-solvent on HSV-1 protease activity (in words) [1]: Activation was observed, albeit to a lesser extent

CCO [Ethanol]
effect of co-solvent on HSV-1 protease activity (in words) [1]: strongly inactivating
activity at 2 % [1, 3]: 27%
activity at 5 % [1, 3]: 10%
activity at 10 % [1, 3]: 0%

O=S(=O)(O)O [SO4^2-, sulfate]
effect of anion/salt on HSV-1 protease activity (in words) [1]: strong activation
Relative activity of HSV-1 protease [1, 4]: 4.70

N[C@H](CCC(=O)O)C(=O)O [D-glutamate]
activity at 200000 µM [1, 3]: 290%

OCC(O)CO [Glycerol]
effect of co-solvent on HSV-1 protease activity (in words) [1]: Activation was observed, albeit to a lesser extent

[Br-].[K+] [Br^-, bromide]
Relative activity of HSV-1 protease ([1]; pH 7.5, 200000 µM): 0.23
Relative activity of HSV-1 protease ([1]; pH 7.5, 800000 µM): 0.07

N.N.O=S(=O)(O)O [(NH4)2 SO4]
effect of anion/salt on HSV-1 protease activity (in words) [1]: slightly less activating

[O-][Cl+3]([O-])([O-])O [ClO4^-, perchlorate]
effect of anion/salt on HSV-1 protease activity (in words) [1]: inhibitory
Relative activity of HSV-1 protease [1, 4]: 0.06
Relative activity of HSV-1 protease [1, 5]: 0.00

Cl [Cl^-, Chloride]
effect of anion/salt on HSV-1 protease activity (in words) [1]: little effect
Relative activity of HSV-1 protease [1, 4]: 0.96
Relative activity of HSV-1 protease [1, 5]: 1.08

O=C(O)CC(O)(CC(=O)O)C(=O)O [Citrate, sodium citrate]
effect of anion/salt on HSV-1 protease activity (in words) [1]: strong activation
kcat /KM [1]: 4500 M⁻¹ s⁻¹
amount of peptide cleavage product (SEKFKMW-amide) that accumulated in 60 minutes ([1]; 0.8M sodium citrate in reaction mixture, HSV-1 protease 40 nM): 100 pmol
amount of peptide cleavage product that accumulated in 1 minute ([1]; 0.8M sodium citrate in reaction mixture, enzyme 0.93 μM): 100 pmol
Relative activity of HSV-1 protease [1, 6]: 4.16
fold induction at 800000 µM ([1]; pH 7.5, read-out: enhancement of the observed hydrolytic rate (increase of activity)): 202
fold induction at 800000 µM ([1]; pH 7.5, read-out: increase of the protease activity (catalytic efficiency)): 860
susceptibility of HSV-1 protease to trypsin digestion (in words) [2]: loss in susceptibility of HSV-1 protease to trypsin digestion

O=P(O)(O)OP(=O)(O)O [HP2 O7^3-]
Relative activity of HSV-1 protease [1, 4]: 7.32

O=P(O)(O)O [HPO4^2- /PO4^3-, sodium phosphate]
effect of anion/salt on HSV-1 protease activity (in words) [1]: strong activation
kcat /KM ([1]; 0.8M salt present): 2200 M⁻¹ s⁻¹
Relative activity of HSV-1 protease [1, 4]: 5.68

O=C(O)/C=C(/CC(=O)O)C(=O)O [cis-Aconitrate]
Relative activity of HSV-1 protease [1, 6]: 2.40
activity at 200000 µM [1, 3]: 506%

O=C(O)CC(C(=O)O)C(O)C(=O)O (centres unmarked) [Isocitrate]
Relative activity of HSV-1 protease [1, 6]: 3.53
activity at 200000 µM [1, 3]: 772%

N[C@@H](CCC(=O)O)C(=O)O [L-glutamate]
activity at 200000 µM [1, 3]: 245%
